Test results reported in publication PMC11012124, “Synthesis of Novel Triazine-Based Chalcones and 8,9-dihydro-7H-pyrimido[4,5-b][1,4]diazepines as Potential Leads in the Search of Anticancer, Antibacterial and Antifungal Agents” (International Journal of Molecular Sciences, 2024).
In brackets after ≈: the same amount, converted by molar mass.

How the values were obtained:
[1] = system: M. tuberculosis ATCC 27294; test: Antitubercular broth microdilution MIC; type: cell-based; settings: Mycobacterium tuberculosis; M. tuberculosis ATCC 27294 (H37Rv); read-out: Minimum inhibitory concentration (MIC)
CCRF-CEM = test: cells; settings: Homo sapiens, 48 h; for CC50: read-out: LC50
HL-60(TB) = test: cells; settings: Homo sapiens, HL-60, 48 h; for CC50: read-out: LC50
K-562 = test: cells; settings: Homo sapiens, K562, 48 h; for GI50: K-562, 48 h; for CC50: read-out: LC50
SR = test: cells; settings: Homo sapiens, 48 h; for CC50: read-out: LC50
HOP-92 = test: cells; settings: Homo sapiens, HOP-92, 48 h; for CC50: read-out: LC50
NCI-H226 = test: cells; settings: Homo sapiens, NCI-H226, 48 h; for CC50: read-out: LC50
NCI-H23 = test: cells; settings: Homo sapiens, NCI-H23, 48 h; for CC50: read-out: LC50
NCI-H460 = test: cells; settings: Homo sapiens, NCI-H460, 48 h; for CC50: read-out: LC50
SF-268 = test: cells; settings: Homo sapiens, SF-268, 48 h; for CC50: read-out: LC50
SF-295 = test: cells; settings: Homo sapiens, SF-295, 48 h; for CC50: read-out: LC50
LOX IMVI = test: cells; settings: Homo sapiens, 48 h; for CC50: read-out: LC50, LOX IMVI, 48 h
MDA-MB-435 = test: cells; settings: Homo sapiens, MDA-MB-435, 48 h; for CC50: read-out: LC50
SK-MEL-2 = test: cells; settings: Homo sapiens, SK-MEL-2, 48 h; for CC50: read-out: LC50
SK-MEL-5 = test: cells; settings: Homo sapiens, SK-MEL-5, 48 h; for CC50: read-out: LC50
UACC-257 = test: cells; settings: Homo sapiens, UACC-257, 48 h; for CC50: read-out: LC50
IGROV1 = test: cells; settings: Homo sapiens, IGROV-1, 48 h; for CC50: read-out: LC50
OVCAR-3 = test: cells; settings: Homo sapiens, OVCAR-3, 48 h; for CC50: read-out: LC50
OVCAR-4 = test: cells; settings: Homo sapiens, OVCAR-4, 48 h; for CC50: read-out: LC50
OVCAR-5 = test: cells; settings: Homo sapiens, OVCAR-5, 48 h; for CC50: read-out: LC50
NCI/ADR-RES = test: cells; settings: Homo sapiens, 48 h; for CC50: read-out: LC50
786-0 = test: cells; settings: Homo sapiens, 786-0, 48 h; for CC50: read-out: LC50
A498 = test: cells; settings: Homo sapiens, A498, 48 h; for CC50: read-out: LC50
SN12C = test: cells; settings: Homo sapiens, 48 h; for CC50: read-out: LC50
TK-10 = test: cells; settings: Homo sapiens, TK-10, 48 h; for CC50: read-out: LC50
MCF7 = test: cells; settings: Homo sapiens, MCF7, 48 h; for CC50: read-out: LC50

## COc1cc(/C=C/C(=O)c2ccc(S(=O)(=O)NCCNc3nc(Nc4ccc(F)cc4)nc(N(C)C)n3)cc2)cc(OC)c1OC [24d]
[1]
  MIC: 50 µg/mL (≈ 76.7 µM)
CCRF-CEM
  GI50: 3.62 µM
  CC50: > 100 µM
HL-60(TB)
  GI50: 2.64 µM
  CC50: > 100 µM
K-562
  GI50: 2.73 µM
  CC50: > 100 µM
SR
  GI50: 2.42 µM
  CC50: > 100 µM
HOP-92
  GI50: 11.5 µM
  CC50: > 100 µM
NCI-H226
  GI50: 4.47 µM
  CC50: > 100 µM
NCI-H23
  GI50: 3.03 µM
  CC50: 34.9 µM
NCI-H460
  GI50: 5.12 µM
  CC50: 50.6 µM
SF-268
  GI50: 11.7 µM
  CC50: > 100 µM
SF-295
  GI50: 2.16 µM
  CC50: 11.1 µM
LOX IMVI
  GI50: 1.71 µM
  CC50: 5.62 µM
MDA-MB-435
  GI50: 2.8 µM
  CC50: 93.9 µM
SK-MEL-2
  GI50: 13.5 µM
  CC50: 59.5 µM
SK-MEL-5
  GI50: 3.4 µM
  CC50: 36.2 µM
UACC-257
  GI50: 15.1 µM
  CC50: 65.1 µM
IGROV1
  GI50: 16.1 µM
  CC50: 59.8 µM
OVCAR-3
  GI50: 6.18 µM
  CC50: 98.4 µM
OVCAR-4
  GI50: 8.02 µM
  CC50: > 100 µM
OVCAR-5
  GI50: 12.9 µM
  CC50: 55.4 µM
NCI/ADR-RES
  GI50: 3.38 µM
  CC50: 56.3 µM
786-0
  GI50: 2.94 µM
  CC50: 51.9 µM
A498
  GI50: 11.3 µM
  CC50: 50.3 µM
SN12C
  GI50: 5.71 µM
  CC50: 63.6 µM
TK-10
  GI50: 13.1 µM
  CC50: > 100 µM
MCF7
  GI50: 1.96 µM
  CC50: 9.34 µM

## CN(C)c1nc(NCCNS(=O)(=O)c2ccc(C(=O)/C=C/c3ccccc3)cc2)nc(Nc2ccc(F)cc2)n1 [24a]
[1]
  MIC: 25 µg/mL (≈ 44.5 µM)
CCRF-CEM
  GI50: 6.59 µM
  CC50: > 100 µM
HL-60(TB)
  GI50: 3.88 µM
  CC50: > 100 µM
K-562
  GI50: 3.34 µM
  CC50: > 100 µM
SR
  GI50: 2.58 µM
  CC50: > 100 µM
HOP-92
  GI50: 8.1 µM
  CC50: 60.1 µM
NCI-H226
  GI50: 5.22 µM
  CC50: 57.3 µM
NCI-H23
  GI50: 10.1 µM
  CC50: 50 µM
NCI-H460
  GI50: 4.34 µM
  CC50: 56.5 µM
SF-268
  GI50: 5.65 µM
  CC50: 65.2 µM
SF-295
  GI50: 6.96 µM
  CC50: 44.5 µM
LOX IMVI
  GI50: 2.47 µM
  CC50: 27.4 µM
MDA-MB-435
  GI50: 7.44 µM
  CC50: 59.8 µM
SK-MEL-2
  GI50: 10.6 µM
  CC50: 55.4 µM
SK-MEL-5
  GI50: 4.7 µM
  CC50: 41.6 µM
UACC-257
  GI50: 12.6 µM
  CC50: 61 µM
IGROV1
  GI50: 11.2 µM
  CC50: 50.6 µM
OVCAR-3
  GI50: 8.59 µM
  CC50: 48.7 µM
OVCAR-4
  GI50: 4.39 µM
  CC50: 99.3 µM
OVCAR-5
  GI50: 13.3 µM
  CC50: 53.2 µM
NCI/ADR-RES
  GI50: 7.33 µM
  CC50: 50.3 µM
786-0
  GI50: 11.2 µM
  CC50: 56.9 µM
A498
  GI50: 11.6 µM
  CC50: 49.7 µM
SN12C
  GI50: 8.2 µM
  CC50: 46.2 µM
TK-10
  GI50: 14.6 µM
  CC50: 65.5 µM
MCF7
  GI50: 1.99 µM
  CC50: 8.23 µM

## CN(C)c1nc(NCCNS(=O)(=O)c2ccc(C3=Nc4c(N)nc(N)nc4NC(c4ccc(Cl)cc4)C3)cc2)nc(Nc2ccc(F)cc2)n1 (stereo not drawn) [31e]
[1]
  MIC: 1.2 µg/mL (≈ 1.67 µM)
CCRF-CEM
  GI50: 2.92 µM
  CC50: > 100 µM
HL-60(TB)
  GI50: 2.72 µM
  CC50: 13.3 µM
K-562
  GI50: 3.08 µM
  CC50: > 100 µM
HOP-92
  GI50: 2.53 µM
  CC50: 13.2 µM
NCI-H226
  GI50: > 100 µM
  CC50: > 100 µM
NCI-H23
  GI50: 72.7 µM
  CC50: > 100 µM
NCI-H460
  GI50: 4.49 µM
  CC50: > 100 µM
SF-268
  GI50: 5.74 µM
  CC50: > 100 µM
SF-295
  GI50: 6.2 µM
  CC50: > 100 µM
LOX IMVI
  GI50: 1.77 µM
  CC50: 3.55 µM
MDA-MB-435
  GI50: 5.17 µM
  CC50: > 100 µM
SK-MEL-2
  GI50: 3.34 µM
  CC50: 14 µM
SK-MEL-5
  GI50: 3.45 µM
  CC50: 14.3 µM
UACC-257
  GI50: 8.07 µM
  CC50: > 100 µM
IGROV1
  GI50: 9.96 µM
  CC50: > 100 µM
OVCAR-3
  GI50: 7.45 µM
  CC50: > 100 µM
OVCAR-4
  CC50: > 100 µM
OVCAR-5
  GI50: > 100 µM
  CC50: > 100 µM
NCI/ADR-RES
  GI50: > 100 µM
  CC50: > 100 µM
786-0
  GI50: 6.21 µM
  CC50: > 100 µM
A498
  GI50: 58.4 µM
  CC50: > 100 µM
SN12C
  GI50: 7.37 µM
  CC50: > 100 µM
TK-10
  GI50: > 100 µM
  CC50: > 100 µM
MCF7
  GI50: 2.89 µM
  CC50: > 100 µM
